The values that follow are results of earlier work, collected in patent US20130156896A1, “CELLULOSE-BASED FOOD CASING HAVING A FUNGICIDAL FINISH AND A METHOD FOR PROTECTING CELLULOSE-BASED FOOD CASINGS FROM MOLD INFESTATION” (CASETECH GMBH, priority 2011, published 2013).

For series [1] the following is noted: animal testing.
For series [2], the system named is Staphylococcus aureus. The following applies: for example against Staphylococcus aureus.
The test system of series [3] is microorganisms. The conditions noted are these: known from the literature.

`CC(C)c1cc2c(c(O)c1O)[C@@]1(C(=O)O)CCCC(C)(C)[C@@H]1CC2` [carnosic acid]: in series [1], the “chemoprotective effect against carcinogens” value was “chemoprotective effect”. Also, the antimicrobial activity result in series [2] is listed as “antimicrobial activity”.
Take `COc1ccc(O)c(C(C)(C)C)c1` [BHA, butylated hydroxyanisole]: in series [3], the activity against microorganisms result is recorded as “relatively weak activity”.
